Assays:
[1] = First study: Cox proportional hazards analysis of disease-free survival in primary breast cancer patients (n = 761, Munich); assay type: in vivo, human; conditions: primary breast cancer n = 761, median follow-up 48 months; therapy yes vs no
Description: The first study evaluated the clinical relevance of the combination of uPA and PAI-1 in 761 individual primary breast cancer patients (Table 3). Patients either underwent a modified radical mastectomy (n=389) or breast conserving surgery with subsequent breast irradiation (n=372) at the Department of Obstetrics and Gynecology, Technical University of Munich, Germany, between 1987 and 1998. Informed consent for analysis of tumor biological factors was obtained at primary surgery. Therapy decisions were based solely on consensus recommendations at the time but not on uPA and PAI-1. For 745 patients, information on adjuvant systemic therapy was available (Table 3). Median age of the patients at time of primary surgery was 56 years (range: 28-92 years). […] In addition to the collective as a whole, the subset of node-negative patients without adjuvant systemic therapy (n=269; median follow-up 60 months) was analyzed separately (Table 3). […]
In studies involving patients from Munich, uPA and PAI-1 antigen have been prospectively measured by ELISA (uPA: Imubind #894. PAI-1: Imubind #821; both from American Diagnostica Inc., Greenwich, Conn.) since 1987 in all primary breast cancer patients treated at our institution. […] The antigen levels in detergent extracts of breast cancer tissue are expressed as ng of analyte per mg of tissue protein. […]

[2] = Second study: Cox proportional hazards analysis of disease-free survival stratified by data set, primary breast cancer patients (Munich and Rotterdam, n = 3424); assay type: in vivo, human; conditions: for Hazard ratio (95% Confidence interval), multivariate Cox model (DFS), main effect: yes (1) vs. no (0)
Description: The second study involved a total of 3424 primary breast cancer patients from two different data sets. One set was collected from the Department of Obstetrics and Gynecology, Technical University of Munich, Germany, and the other was from the Department of Medical Oncology, Rotterdam Cancer Institute and University Hospital Rotterdam, the Netherlands. Patients had been treated for primary breast cancer between 1987 and 1999. Treatment decisions with regard to primary surgery and adjuvant systemic therapy were based primarily on consensus recommendations at the time. Treatment strategies differed between Munich and Rotterdam, particularly regarding administration of adjuvant systemic therapy to node-positive patients (Table 4b) (Harbeck et al., 2002, J. Clin. Oncology 20:1000-1009; Foekens et al., 2000, Cancer Res. 60:636-643). Of those patients treated by adjuvant chemotherapy, the majority received CMF (Rotterdam: 76%, Munich: 65%); about one-fifth in both collectives received anthracycline-containing regimens (Rotterdam: 24%, Munich: 21%); and the rest of the Munich patients were treated by other chemotherapy regimens. The endocrine treatment used in both collectives was tamoxifen.
Median age of the patients at time of primary surgery was 56 years (range: 22-94 years). Both data sets contained established clinical and histo-morphological factors such as number of involved axillary lymph nodes, pT stage, estrogen receptor status, progesterone receptor status, exposure to adjuvant chemotherapy (CT), adjuvant endocrine therapy (HT), or adjuvant radiotherapy (RT), as well as uPA and PAI-1 measurements. Since the scoring systems for assessment of grade differed substantially between the centers and could thus represent different biological tumor characteristics, grade was not included in the combined stratified analysis. The variables were re-coded as described below in Section 6.1.3. Patients with an uncertain number of affected lymph nodes were included for computing the univariate distributions of ranked variables but not in multivariate survival analysis. Forty-five Rotterdam patients with an uncertain number of affected lymph nodes and three Munich patients with missing information on chemotherapy were not included. At the time of primary therapy, no patient had any clinical or radiological evidence of distant metastases. Follow-up data were obtained at regular intervals. Median follow-up time of all patients still alive at time of analysis was 83 months (range: 1-183 months). Within the follow-up period, 1319 patients (39%) experienced disease recurrence and 1200 patients (35%) died.
In studies involving patients from Munich, uPA and PAI-1 antigen have been prospectively measured by ELISA (uPA: Imubind #894. PAI-1: Imubind #821; both from American Diagnostica Inc., Greenwich, Conn.) since 1987 in all primary breast cancer patients treated at our institution. (Jänicke et al., 1994, Cancer Res. 54: 2527-2530). The antigen levels in detergent extracts of breast cancer tissue are expressed as ng of analyte per mg of tissue protein. In the study involving Rotterdam patients, uPA and PAI-1 antigen were measured by ELISA, employing the same antibodies as above, in cytosol preparations of the primary tumor as described by Foekens et al., 2000, Cancer Res., 60:636-643.
Due to differences in measurement techniques between the Munich and Rotterdam data sets, data re-coding was required. For the laboratory measurements of uPA, PAI-1, Estrogen receptor, and progesterone receptor, fractional ranks were computed with respect to each distribution. Fractional ranks also keep the variables on a convenient scale from zero to one, thus facilitating comparison of the […] coefficients of different factors. In particular, ranked estrogen receptor and progesterone receptor measurements were included as continuous variables in the statistical models, even though biochemical and immunohistochemical assays were used. […]

In the case of `CC/C(=C(\c1ccccc1)c1ccc(OCCN(C)C)cc1)c1ccccc1` [Adjuvant endocrine therapy, tamoxifen], the “Disease-free survival (DFS) multivariate Relative risk (95% Confidence interval)” value [1] is reported as 0.5 (0.3-0.7), the “HR (DFS) of therapy, separate Cox model” value ([2]; 0-3 affected lymph nodes, high-uPA/PAI-1 subgroup n=1174) is reported as 0.51 (0.33-0.78) and the “95% CI for the HR (DFS) of therapy, separate Cox model” value ([2]; 0-3 affected lymph nodes, low-uPA/PAI-1 group n=1418, not significant) is reported as 0.59-1.44. The “HR (DFS) of therapy, separate Cox regression (2-stage model)” value ([2]; 4 or more affected nodes, low-uPA/PAI-1 subgroup) was 0.62 (95% CI, 0.43-0.90), the “HR (DFS) of therapy, separate Cox regression model” value ([2]; 4 or more nodes, high uPA/PAI-1) was 0.68 (95% CI, 0.49-0.95) and the “Hazard ratio (95% Confidence interval), multivariate Cox model (DFS), main effect” value (“Hazard ratio (95% Confidence interval)” below) ([2]; all patients n = 3,376) was 0.68 (0.56-0.82). For the same molecule, the “Hazard ratio (95% Confidence interval)” value ([2]; all patients n = 3,376, listed as HT) was 0.68, the “HR (DFS) due to therapy, separate multivariate Cox model” value ([2]; all patients, high-uPA/PAI-1 subgroup) was 0.63 and the “HR (DFS) due to therapy, separate multivariate Cox model” value ([2]; all patients, low-uPA/PAI-1 subgroup) was 0.74. The “95% CI for HR of interaction HT with uPA/PAI-1 (DFS)” value ([2]; all patients, no significant interaction) was 0.66-1.28, the “Hazard ratio (95% Confidence interval)” value ([2]; patients with 0-3 involved axillary nodes n = 2592) was 0.66 (0.48-0.90) and the “Hazard ratio (95% Confidence interval)” value ([2]; patients with 4 or more involved axillary nodes n = 784) was 0.68 (0.53-0.87).

Reference: US20190233899A1, “METHODS FOR SELECTING TREATMENT REGIMENS AND PREDICTING OUTCOMES IN CANCER PATIENTS” (BIOMEDICA DIAGNOSTICS INC., priority 2002, published 2019)
